For the test, the target named is T1, Serine/threonine-protein kinase LATS2 (Homo sapiens, UniProt Q9NRM7).
T1 sequence (Q9NRM7 whole entry): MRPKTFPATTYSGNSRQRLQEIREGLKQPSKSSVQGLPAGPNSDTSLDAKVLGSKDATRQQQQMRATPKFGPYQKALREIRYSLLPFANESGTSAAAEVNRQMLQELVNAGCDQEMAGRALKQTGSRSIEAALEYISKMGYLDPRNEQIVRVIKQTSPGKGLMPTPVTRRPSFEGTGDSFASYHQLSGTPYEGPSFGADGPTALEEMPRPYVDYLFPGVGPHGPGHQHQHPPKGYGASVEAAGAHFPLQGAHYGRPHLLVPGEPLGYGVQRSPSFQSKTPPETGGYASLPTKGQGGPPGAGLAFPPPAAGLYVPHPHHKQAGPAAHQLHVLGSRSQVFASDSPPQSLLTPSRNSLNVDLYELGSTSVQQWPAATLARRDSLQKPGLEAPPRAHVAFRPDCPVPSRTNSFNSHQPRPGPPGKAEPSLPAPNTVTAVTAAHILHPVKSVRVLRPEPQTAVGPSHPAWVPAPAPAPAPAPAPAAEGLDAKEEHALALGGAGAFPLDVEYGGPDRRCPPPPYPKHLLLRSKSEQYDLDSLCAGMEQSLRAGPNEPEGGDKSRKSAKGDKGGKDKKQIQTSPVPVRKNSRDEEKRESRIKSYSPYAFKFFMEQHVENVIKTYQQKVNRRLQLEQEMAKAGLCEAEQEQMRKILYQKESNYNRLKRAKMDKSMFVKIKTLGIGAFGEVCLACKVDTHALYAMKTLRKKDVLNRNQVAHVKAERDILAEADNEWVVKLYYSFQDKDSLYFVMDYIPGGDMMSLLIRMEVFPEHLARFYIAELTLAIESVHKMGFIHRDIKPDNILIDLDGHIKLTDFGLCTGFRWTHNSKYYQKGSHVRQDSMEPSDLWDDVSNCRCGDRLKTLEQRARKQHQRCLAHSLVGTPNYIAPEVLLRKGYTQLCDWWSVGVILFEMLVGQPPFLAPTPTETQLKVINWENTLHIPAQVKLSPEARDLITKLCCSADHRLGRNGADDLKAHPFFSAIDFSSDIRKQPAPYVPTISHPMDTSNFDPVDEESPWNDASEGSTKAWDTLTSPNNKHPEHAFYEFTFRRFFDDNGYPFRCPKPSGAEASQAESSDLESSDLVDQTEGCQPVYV
The test is described as follows: Standard LATS2 HTRF Assay. The method, then: Human LATS2 catalytic domain which contains the amino acids G553-V1088 (accession NP_055387) was purified in-house. The LATS2 catalytic domain was co-purified with Mob1b (accession NP_775739). The LATS2 biochemical HTRF assay was performed using the HTRF KinEASE-STK S1 Kit (Cisbio, Cat #62ST1PEC), following the protocol from the manufacturer. Compounds were dispensed by the Echo Liquid Handler (Labcyte) into a white 384-well plate (PerkinElmer, Cat #6008289). 3 uL of 2×LATS2 enzyme solution was added to the compounds, following by a 10 minute incubation at room temperature. Then, 2×ATP and STK S1 peptide solution was added to initiate the one hour enzyme reaction at room temperature. The final condition of the reaction was 0.2 nM LATS2, 50 μM ATP, 0.5 μM STK S1 peptide in 50 mM HEPES pH7.2, 10 mM MgCl2, 0.1% BGG, 0.005% Brij-35, 1 mM DTT. The reaction was quenched by adding 6 uL of the detection mixture which contained Streptavidin XL665 and STK Antibody-Cryptate (Cisbio), incubate for 1 hour at room temperature. The HTRF (665 nm/620 nm) signal was read on the Envision plater reader (PerkinElmer). The IC50 values were determined by fitting the % inhibition with a nonlinear four-parameter logistical equation. The Ki values were calculated using the Cheng-Prusoff equation for a competitive inhibitor, IC50═Ki (1+S/Km)+M [E] with ATP Km for LATS2=105 μM.

`COc1cncc2nc(-c3ccncc3)nc(N3CCC4(CCN(C)C4)CC3)c12` [US20240174696, Compound 252]: the Ki (commonly a measure of affinity in units of concentration, obtained from inhibition or displacement) came to 0.022 nM. That is a picomolar value.
